Assay results: patent US20160250213A1, “FORMULATIONS OF AZAINDOLE COMPOUNDS” (priority 2013, published 2016)
“And” between values parts separate entries of the source, which are not always exact repeats. Equal entries are not always repeated. Where two headings read alike, the source gives them in different places. Marks after values point to notes of the source that are not given here.

Tested on: influenza A
Parameters: species or system mice
Conditions: mouse, in vivo

## O=C(O)[C@H]1C2CCC(CC2)C1Nc1nc(-c2c[nH]c3ncc(F)cc23)ncc1F (some centres unmarked) [Compound (1)]
  Log10 Reduction vs. Vehicle: −1.08 Log10
3 mg/kg
  Log10 Reduction vs. Vehicle: −1.04 Log10
  Lung Viral Titer: 5.24 *** Log10 TCID50
10 mg/kg
  Lung Viral Titer: 5.20*** Log10 TCID50
30 mg/kg
  Lung Viral Titer: 3.95 Log10 TCID50 and 4.53*** Log10 TCID50
